Assays:
WRN [1] = biological target: T1, WRN (Homo sapiens, UniProt Q14191); assay: WRN ATPase activity assay (ADP-Glo); assay type: biochemical; conditions: 1-hr pre-incubation with enzyme; 100 μM ATP, 25 nM forked dsDNA, 1 nM WRN; geometric mean of at least 2 replicates
T1 construct: A His-tagged construct of WRN (AA S2-S1235) was produced and used for the ATPase assay; His; made in house; host or cells: Sf9 insect cells (baculovirus, pFastBac1)
Procedure: Compounds of the Examples were tested for WRN ATPase activity. WRN ATPase activity catalyzes ATP hydrolysis to produce ADP and phosphate. DNA encoding the target protein, 6×HIS-TEV-WRN-517-945, was produced, cloned and transfected as detailed in Example D. The amount of ADP produced was measured using ADP-Glo™ Kinase Assay kit from Promega Corporation in a Greiner white regular volume 384 wells assay plate (Greiner #781075). Data was normalized to a standard curve generated using various ADP concentrations and the corresponding luminescent signal intensities at each concentration. The assay conditions were optimized for enzyme concentration (WRN), substrate concentrations (ATP & dsDNA), and the linearity of the ATPase reaction, in the following assay buffer: 50 mM Tris-HCl, pH-7.5, 2 mM MgCl2, 50 mM NaCl, 1 mM EGTA, 0.01% P-20, 0.05% BSA, and 2 mM DTT prepared with nuclease free water.
A serial dilution (1:3 scheme) of the compounds were prepared in neat DMSO, with 100 nL of the compounds dispensed in the 384 wells assay plate. An 1-hr pre-incubation of the compounds with enzyme was included. A His-tagged construct of WRN (AA S2-S1235) was produced and used for the ATPase assay. Maximum inhibition control wells were set up with the addition of only assay buffer, and no inhibition control wells were set up with neat DMSO without test compounds. The reaction was initiated by addition of 5 μL substrate mix (200 μM ultrapure ATP, and 50 nM dsDNA prepared in assay buffer) and incubated at 25° C. for 35 min. A forked dsDNA oligomer substrate was prepared by annealing equal amounts of oligo GPat-1 ([BHQ2][…]) and oligo GPat-2 ([…][TAM]) and was used as dsDNA substrate for WRN ATPase assay. A typical ATPase reaction consists of 25 nM forked dsDNA, 100 μM ATP, and 1 nM WRN prepared in assay buffer. The WRN ATPase reaction was stopped by the addition of 5 μL of ADP-Glo Reagent from ADP-Glo™ Kinase Assay kit and incubated for 40 min to deplete the unreacted ATP. Afterwards, 5 μL of Kinase Detection Reagent from the ADP-Glo™ Kinase Assay kit was added and incubated for 1 hr for the development of luminescence signal.
Luminesce signals were measured on BMG PHERAstar FSX using luminescence protocol. Data analysis was carried out using Genedata software following % of control normalization. Fitting parameters include dose response IC50, Hill slope (n), maximum inhibition (S∞), and minimum inhibition (S0). The reported IC50 values for compounds in this invention are the geometric means of at least 2 independent replicates.

WRN [2] = biological target: T1, WRN; assay: WRN Helicase activity assay (fluorescence DNA unwinding); assay type: biochemical; conditions: 1-hr pre-incubation with enzyme; 100 μM ATP, 25 nM forked dsDNA, 1 nM WRN; geometric mean of at least 2 replicates
Procedure: Compounds of the examples were tested for WRN helicase activity. DNA encoding the target protein, 6×HIS-TEV-WRN-517-945, was produced, cloned and transfected as detailed in Example D. To determine the inhibitory properties of the compounds, a 384 wells plate-based Helicase assay was set up to measure the extent of DNA unwinding (Helicase) activity of WRN. The WRN Helicase assay was designed to measure increase in fluorescence signal using a fluorescence based, donor-quencher paired forked dsDNA oligomer substrate (custom synthesis from Sigma-Aldrich) prepared by annealing equal amounts of oligo GPat-1 ([BHQ2][…]) and oligo GPat-2 ([…][TAM]). Continuous measurement of fluorescent signal was used to optimize the buffer conditions, concentration of enzyme (WRN), concentration of substrates (ATP & dsDNA), and the linearity of the Helicase reaction. All solutions were prepared in the following assay buffer: 50 mM Tris-HCl, pH-7.5, 2 mM MgCl2, 50 mM NaCl, 1 mM EGTA, 0.01% P-20, 0.05% BSA, and 2 mM DTT prepared with nuclease free water.
A serial dilution (1:3 scheme) of the compounds was prepared in neat DMSO and 100 nL of the compounds was dispensed in the Greiner black low volume (Greiner #784076) 384 wells assay plate. An 1-hr pre-incubation of the compounds with enzyme was included. A His-tagged construct of WRN (AA S2-S1235) was produced and used for the ATPase assay. Maximum inhibition control wells were set up with the addition of only assay buffer, and no inhibition control wells were set up with neat DMSO without test compounds. The reaction was initiated by addition of 5 μL substrate mix (200 μM ultrapure ATP, and 50 nM dsDNA prepared in assay buffer) and incubated at 25° C. for 35 min. A typical Helicase reaction consists of 25 nM forked dsDNA, 100 μM ATP, and 1 nM WRN prepared in assay buffer. The WRN Helicase reaction was quenched by the addition of 5 μL ‘STOP’ solution containing 100 mM EDTA (final EDTA concentration 33.33 mM) prepared in assay buffer. The plates were read on BMG PHERAstar FSX using 540/590 module to measure an increase of fluorescence. Data analysis was carried out using the Genedata software following % of control normalization. Fitting parameters include dose response IC50, Hill slope (n), maximum inhibition (S∞), and minimum inhibition (S0). The reported IC50 values for compounds in this invention are the geometric means of at least 2 independent replicates.

T1 sequence (Q14191 2-1235): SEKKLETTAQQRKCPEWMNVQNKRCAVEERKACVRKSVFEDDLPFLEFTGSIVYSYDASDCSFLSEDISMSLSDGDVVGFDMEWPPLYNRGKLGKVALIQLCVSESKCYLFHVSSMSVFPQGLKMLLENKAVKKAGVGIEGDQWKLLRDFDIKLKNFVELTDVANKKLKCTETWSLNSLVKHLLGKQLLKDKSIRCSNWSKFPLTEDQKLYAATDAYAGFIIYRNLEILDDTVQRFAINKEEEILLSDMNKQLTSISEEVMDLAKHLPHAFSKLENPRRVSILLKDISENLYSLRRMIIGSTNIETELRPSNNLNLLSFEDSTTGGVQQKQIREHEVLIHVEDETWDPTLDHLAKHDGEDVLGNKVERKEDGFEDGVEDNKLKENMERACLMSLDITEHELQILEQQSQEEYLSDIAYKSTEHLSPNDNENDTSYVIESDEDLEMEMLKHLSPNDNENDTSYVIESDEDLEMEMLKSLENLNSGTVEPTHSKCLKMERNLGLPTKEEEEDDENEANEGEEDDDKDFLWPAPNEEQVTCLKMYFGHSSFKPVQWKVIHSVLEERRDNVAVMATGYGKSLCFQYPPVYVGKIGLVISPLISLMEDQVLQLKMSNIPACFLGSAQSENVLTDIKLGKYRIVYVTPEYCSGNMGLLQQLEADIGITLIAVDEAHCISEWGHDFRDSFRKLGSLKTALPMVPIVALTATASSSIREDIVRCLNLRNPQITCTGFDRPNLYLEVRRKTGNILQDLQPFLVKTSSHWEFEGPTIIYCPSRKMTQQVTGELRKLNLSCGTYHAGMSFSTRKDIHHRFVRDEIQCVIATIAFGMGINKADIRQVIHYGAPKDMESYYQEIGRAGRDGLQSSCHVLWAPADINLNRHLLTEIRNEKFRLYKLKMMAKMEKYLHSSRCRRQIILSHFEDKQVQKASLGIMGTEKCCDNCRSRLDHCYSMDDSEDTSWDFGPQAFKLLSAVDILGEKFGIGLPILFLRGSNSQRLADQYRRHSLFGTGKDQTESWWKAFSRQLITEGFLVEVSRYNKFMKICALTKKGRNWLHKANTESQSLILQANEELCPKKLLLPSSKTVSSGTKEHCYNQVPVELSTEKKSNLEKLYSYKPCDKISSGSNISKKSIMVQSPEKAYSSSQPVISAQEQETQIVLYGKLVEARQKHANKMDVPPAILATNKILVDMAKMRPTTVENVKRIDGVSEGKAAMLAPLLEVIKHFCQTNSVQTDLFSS

IC50 (WRN [1])	IC50 (WRN [2])	SMILES
1000 to 5000 nM	5000 to 20000 nM	C=CC(=O)Nc1ccccc1-c1c(CC)nc2n(CC(=O)Nc3ccc(F)cc3)c3cc(C)c(C)cc3n2c1=O [Example 18, N-(2-(2-Ethyl-10-(2-((4-fluorophenyl)amino)-2-oxoethyl)-7,8-dimethyl-4-oxo-4,10-dihydrobenzo[4,5]imidazo[1,2-a]pyrimidin-3-yl)phenyl)acrylamide]
< 100 nM	< 100 nM	C=CC(=O)Nc1ccccc1-c1c(CC)nc2n(CC(=O)Nc3ccc(CC)cc3)c3ccccc3n2c1=O [Example 5, N-(2-(2-Ethyl-10-(2-((4-ethylphenyl)amino)-2-oxoethyl)-4-oxo-4,10-dihydrobenzo[4,5]imidazo[1,2-a]pyrimidin-3-yl)phenyl)acrylamide]
< 100 nM	< 100 nM	C=CC(=O)Nc1ccccc1-c1c(CC)nc2n(CC(=O)Nc3ccc(C(F)(F)F)cc3Cl)c3ccccc3n2c1=O [Example 4, N-(2-(10-(2-((2-Chloro-4-(trifluoromethyl)phenyl)amino)-2-oxoethyl)-2-ethyl-4-oxo-4,10-dihydrobenzo[4,5]imidazo[1,2-a]pyrimidin-3-yl)phenyl)acrylamide]
1000 to 5000 nM	5000 to 20000 nM	C=CC(=O)Nc1nn(C)cc1-c1c(CC)nc2n(CC(=O)Nc3ccc(C(F)(F)F)cc3)c3ccccc3n2c1=O [Example 16, N-(4-(2-Ethyl-4-oxo-10-(2-oxo-2-((4-(trifluoromethyl)phenyl)amino)ethyl)-4,10-dihydrobenzo[4,5]imidazo[1,2-a]pyrimidin-3-yl)-1-methyl-1H-pyrazol-3-yl)acrylamide]
< 100 nM	< 100 nM	C=CC(=O)Nc1ccccc1-c1c(CC)nc2n(CC(=O)Nc3ccc(C(F)(F)F)cc3)c3c(OC)cccc3n2c1=O [Example 19, N-(2-(2-Ethyl-9-methoxy-4-oxo-10-(2-oxo-2-((4-(trifluoromethyl)phenyl)amino)ethyl)-4,10-dihydrobenzo[4,5]imidazo[1,2-a]pyrimidin-3-yl)phenyl)acrylamide]
100 to 500 nM	100 to 500 nM	C=CC(=O)Nc1ccc(C(=O)NCCO)cc1-c1c(CC)nc2n(CC(=O)Nc3ccc(F)cc3)c3ccccc3n2c1=O [Example 12, 4-Acrylamido-3-(2-ethyl-10-(2-((4-fluorophenyl)amino)-2-oxoethyl)-4-oxo-4,10-dihydrobenzo[4,5]imidazo[1,2-a]pyrimidin-3-yl)-N-(2-hydroxyethyl) benzamide]
100 to 500 nM	100 to 500 nM	C=CC(=O)Nc1ccccc1-c1c(CC)nc2n(CC(=O)Nc3cccc(C(F)(F)F)c3)c3ccccc3n2c1=O [Example 7, N-(2-(2-Ethyl-4-oxo-10-(2-oxo-2-((3-(trifluoromethyl)phenyl)amino)ethyl)-4,10-dihydrobenzo[4,5]imidazo[1,2-a]pyrimidin-3-yl)phenyl)acrylamide]
100 to 500 nM	100 to 500 nM	C=CC(=O)Nc1ccc(C(=O)N2CC3CC3(O)C2)cc1-c1c(CC)nc2n(CC(=O)Nc3ccc(F)cc3)c3ccccc3n2c1=O (stereo not drawn) [Example 14, N-(2-(2-Ethyl-10-(2-((4-fluorophenyl)amino)-2-oxoethyl)-4-oxo-4,10-dihydrobenzo[4,5]imidazo[1,2-a]pyrimidin-3-yl)-4-(1-hydroxy-3-azabicyclo[3.1.0]hexane-3-carbonyl)phenyl) acrylamide]
< 100 nM	< 100 nM	C=CC(=O)Nc1ccccc1-c1c(CC)nc2n(CC(=O)Nc3ccccc3)c3ccccc3n2c1=O [Example 2, N-(2-(2-Ethyl-4-oxo-10-(2-oxo-2-(phenylamino)ethyl)-4,10-dihydrobenzo[4,5]imidazo[1,2-a]pyrimidin-3-yl)phenyl)acrylamide]
